Five compounds from patent US8329640B2, “Peptides with improved properties having the biological activity of vasoactive intestinal peptide (VIP) and their use for the treatment of lung diseases” (priority 2007, dated 2012) can be followed below.

Several values for one entry are separate records, joined by “and”; a condition that tells them apart may be missing. Equal entries are not always repeated. No end group written: not given here.

The subject of one series is PASMC. The series can be described thus: cAMP measurement in PASMC (cyclic AMP ELISA). The format is cell-based. Particulars: for cAMP +/− SD: 20 min; for cyclic AMP content of PASMC, effect in words: analogues compared with VIP. The protocol:
Effects of VIP and the peptides according to the invention are mediated by specific G-protein coupled receptors. Three distinct receptor subtypes, with differing affinity for the peptides, have been cloned and characterized as receptors 1 and 2 (VPAC1 and VPAC2) and pituitary adenylate cyclase activating polypeptide receptor (PAC1). The secondary messenger is cyclic adenosine mono phosphate (CAMP). […] Cells derived from pulmonary artery (PASMC) were seeded in 24 well plates and cultured in DMEM containing 10% fetal calf serum (Gibco lifesciences, Karlsruhe), Penicillin (Gibco lifesciences, Karlsruhe, 100 U/ml) Streptomycin (Gibco lifesciences, Karlsruhe, 100 U/ml) to confluency. […] The incubation is stopped by rinsing cells with PBS and immediate lysis of cells with HCl (0.1N) containing 3-isobutyl 1-methyl xanthine (500 μM) to block further hydrolysis of cAMP. Lysed cells were centrifuged and the supernatants assayed for cAMP using an commercially available cyclic AMP ELISA (Assay Designs, Inc., Michigan, distribution by Bio Trend, Köln).
A general note: ELISA stands for enzyme-linked immunosorbent assay.

Series [1] relates to monocytes after LPS stimulation. The series can be described thus: Nitrite (NO) production by monocytes/macrophages after LPS stimulation. Type of series: cell-based, human. To be noted: for Nitrit +/− SD: LPS 100 nM + peptide 100 nM, 24 hours, no LPS 48, LPS alone 75; for anti-inflammatory response (NO production) on simultaneous incubation with LPS: after 24 hours, analogues compared with VIP. The protocol: Peripheral blood mononuclear cells were isolated from whole venous blood from 12 stable COPD patients and 12 healthy probands by Ficoll density gradient centrifugation. Monocytes were differentiated in RPMI-1640 medium supplemented with 5% FCS, antibiotics and 10^−8 M 1,25-dihydroxycholecalciferol (Sigma) in a humidified atmosphere with 5% CO2 at 37° C.
For infection simulation, macrophage stimulation and experimental in vivo treatment the differentiated cells were incubated either with LPS, with LPS and SEQ ID No.:1 (VIP) or SEQ ID No.:2 (A-15) or SEQ ID No.:3 (A-18), or with medium alone for control.
To test the hypothesis whether or not the macrophages utilize the VIP-signaling pathway to modulate and limit the immune response, the inflammation reaction in vitro was stimulated and NO (produced by iNOS) production by the cells was measured under inflammation and under in vitro therapy with VIP and the peptides according to the invention (SEQ ID Nos 2 and 3). NOS increased dramatically by LPS after 24 hours. […] This anti-inflammatory response was better by both VIP-analogues according to SEQ ID Nos. 2 and 3.

A further series relates to COPD patients. As to the kind of experiment: Phase II double-blind, randomized, placebo-controlled clinical trial of inhaled VIP in COPD. To be noted: VIP (n = 15). The procedure:
Chronic obstructive pulmonary disease (COPD) is characterised by progressive airflow limitation associated with chronic inflammation. […] The efficacy and safety of VIP in patients was assessed with moderate to severe COPD.
The present double-blind, randomized, placebo-controlled study was undertaken in an outpatient setting. COPD patients (n=34) were randomly assigned VIP 50 μg (n=17), or placebo (n=17), given per inhalation, 4 times daily for 12 weeks. VIP serum concentration was measured in all patients. Primary outcomes were health-related quality of life and exercise capacity. Secondary outcomes included the lung function parameters and COPD exacerbations.

In the case of `CC(C)Cn1c(=O)n(C)c(=O)c2[nH]cnc21` [IBMX, 3-isobutyl 1-methyl xanthine, reference compound], the “cAMP +/− SD” value in the series on PASMC (IBMX 500 μM alone) was 16.37 pmol/mL and 17.16 pmol/mL and 15.91 pmol/mL.

In the case of “His (Ac)-Ser-Asp-Ala-Val-Phe-Thr-Asp-Asn-Tyr-Thr-Arg-Leu-Arg-Lys-Gln-Met-Ala-Val-Lys-Lys-Tyr-Leu-Asn-Ser-Val-Leu-Asn ({Ac-H2N}-SDAVFTDNYTRLRKQMAVKKYLNSVLN; not fully specified (residue 16); printed as His (Ac)-Ser-Asp-Ala-Val-Phe-Thr-Asp-Asn-Tyr-Thr-Arg-Leu-Arg-Lys-Gln-Met-Ala-Val-Lys-Lys-Tyr-Leu-Asn-Ser-Val-Leu-Asn) [Pep - 18]”, in series [1], the “Nitrit +/− SD” value was determined as 19 µmol. In addition, in series [1], the “anti-inflammatory response (NO production) on simultaneous incubation with LPS” value is given as “better”. For the same compound, the “cyclic AMP content of PASMC, effect in words” value in the series with PASMC is “Higher increase”. The “cAMP +/− SD” value stood at 36.66 pmol/mL with PASMC (peptide 1 nM + IBMX 500 μM); 14.83 pmol/mL in the series with PASMC (peptide 1 nM, without IBMX); 37.00 pmol/mL in the series on PASMC (peptide 10 nM + IBMX 500 μM); 19.45 pmol/mL with PASMC (peptide 10 nM, without IBMX); 46.42 pmol/mL in the series with PASMC (peptide 100 nM + IBMX 500 μM); 28.43 pmol/mL with PASMC (peptide 100 nM, without IBMX).

In the case of `C=C[C@@]1(C)CC(=O)[C@]2(O)[C@@]3(C)[C@@H](O)CCC(C)(C)[C@@H]3[C@H](O)[C@H](OC(C)=O)[C@@]2(C)O1` [Forskolin, reference compound], the “cAMP +/− SD” value with PASMC (Forskolin 10 μM + IBMX 500 μM) is 41.10 pmol/mL and 47.81 pmol/mL and 58.00 pmol/mL.

`CC[C@H](C)[C@H](NC(=O)[C@H](CO)NC(=O)[C@H](CC(N)=O)NC(=O)[C@H](CC(C)C)NC(=O)[C@H](Cc1ccc(O)cc1)NC(=O)[C@H](CCCCN)NC(=O)[C@H](CCCCN)NC(=O)[C@@H](NC(=O)[C@H](C)NC(=O)[C@H](CCSC)NC(=O)[C@H](CCC(N)=O)NC(=O)[C@H](CCCCN)NC(=O)[C@H](CCCN=C(N)N)NC(=O)[C@H](CC(C)C)NC(=O)[C@H](CCCN=C(N)N)NC(=O)[C@@H](NC(=O)[C@H](Cc1ccc(O)cc1)NC(=O)[C@H](CC(N)=O)NC(=O)[C@H](CC(=O)O)NC(=O)[C@@H](NC(=O)[C@H](Cc1ccccc1)NC(=O)[C@@H](NC(=O)[C@H](C)NC(=O)[C@H](CC(=O)O)NC(=O)[C@H](CO)NC(=O)[C@@H](N)Cc1c[nH]cn1)C(C)C)[C@@H](C)O)[C@@H](C)O)C(C)C)C(=O)N[C@@H](CC(C)C)C(=O)N[C@@H](CC(N)=O)C(N)=O` [VIP]: in the series with COPD patients, the “Adverse events: COPD exacerbation, number” value came to 8; the “Adverse events: COPD exacerbation, percent” value is “(53.3%)”; the “Adverse events: Diarrhoea NOS, number” value is 0; the “Adverse events: Diarrhoea NOS, percent” value was “(0%)”. Besides, in the series with COPD patients, the “Adverse events: Nasopharyngitis, number” value came to 0; the “Adverse events: Nasopharyngitis, percent” value was “(0%)”; the “Adverse events: Nausea, number” value is reported as 0; the “Adverse events: Nausea, percent” value is reported as “(0%)”. Further, in the series on COPD patients, the “Adverse events: Upper respiratory tract infection, number” value was determined as 1 and the “Adverse events: Upper respiratory tract infection, percent” value is “(6.7%)”.

For the compound “His (Ac)-Ser-Asp-Ala-Val-Phe-Thr-Asp-Asn-Tyr-Thr-Arg-Leu-Arg-Lys-Gln-Met (O)-Ala-Val-Lys-Lys-Tyr-Leu-Asn-Ser-Ile-Leu-Asn [Pep - 15]”, the “Nitrit +/− SD” value in series [1] worked out at 16 µmol. Further, the “anti-inflammatory response (NO production) on simultaneous incubation with LPS” value in series [1] is reported as “better”. Moreover, in the series on PASMC, the “cyclic AMP content of PASMC, effect in words” value was “Higher increase”. The “cAMP +/− SD” value was 26.45 pmol/mL in the series on PASMC (peptide 1 nM + IBMX 500 μM); 13.30 pmol/mL in the series with PASMC (peptide 1 nM, without IBMX); 27.00 pmol/mL in the series on PASMC (peptide 10 nM + IBMX 500 μM); 16.30 pmol/mL with PASMC (peptide 10 nM, without IBMX); 36.67 pmol/mL in the series with PASMC (peptide 100 nM + IBMX 500 μM); 23.30 pmol/mL in the series with PASMC (peptide 100 nM, without IBMX).
